{"source": "ChEMBL document CHEMBL5512610", "about": "“Drug discovery and optimization based on the co-crystal structure of natural product with target” (Eur J Med Chem, 2024)", "key": {"[1]": {"biological_target": "T1, Cyclin-dependent kinase 9 (Homo sapiens, UniProt P50750)", "T1 sequence (P50750 whole entry, the tested form may be a part)": "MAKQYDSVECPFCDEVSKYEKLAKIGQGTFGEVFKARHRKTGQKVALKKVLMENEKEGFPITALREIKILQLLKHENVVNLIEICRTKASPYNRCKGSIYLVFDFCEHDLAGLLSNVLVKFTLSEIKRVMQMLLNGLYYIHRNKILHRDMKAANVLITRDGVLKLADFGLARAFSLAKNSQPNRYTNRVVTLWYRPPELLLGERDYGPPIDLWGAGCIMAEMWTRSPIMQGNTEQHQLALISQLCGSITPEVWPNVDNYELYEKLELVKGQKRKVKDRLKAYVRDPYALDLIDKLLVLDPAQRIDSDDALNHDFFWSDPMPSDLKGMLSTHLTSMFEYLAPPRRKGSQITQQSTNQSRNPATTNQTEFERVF", "assay": "Inhibition of human recombinant CDK9 (773 to 928 residues) expressed in insect cells", "parameters": "species or system Insect cell"}, "[2]": {"biological_target": "T1, Cyclin-dependent kinase 9", "assay": "Inhibition of CDK9 (unknown origin)"}, "A549": {"system": "A549", "assay": "Growth inhibition of human A549 cells incubated for 72 hrs by MTT assay", "format": "functional"}, "[3]": {"assay": "Binding affinity to actin (unknown origin) assessed as dissociation constant", "parameters": "species or system Homo sapiens"}, "MRC5 [4]": {"system": "MRC5", "assay": "Cytotoxicity against human MRC5 cells assessed as reduction in cell viability", "format": "functional, cell-based"}, "HepG2": {"system": "HepG2", "assay": "Cytotoxicity against human HepG2 cells assessed as reduction in cell growth", "format": "functional, cell-based"}, "MRC5 [5]": {"system": "MRC5", "assay": "Antiproliferative activity against human MRC5 cells assessed inhibition of cell growth incubated for 48 hrs by MTT assay", "format": "functional, cell-based", "conditions": "MRC5, 48 h"}, "Plasmodium falciparum": {"system": "Plasmodium falciparum", "assay": "Antiplasmodial activity against Plasmodium falciparum K1 assessed as reduction in parasite growth", "format": "functional, organism-based"}, "Hepatitis C virus": {"system": "Hepatitis C virus", "assay": "Antiviral activity against Hepatitis C virus genotype 1b infected in human Huh-7 cells assessed as reduction in viral infection", "format": "functional, organism-based, Hepacivirus hominis"}, "[6]": {"assay": "Cytotoxicity against HUVEC cells assessed as inhibition of cell growth incubated for 72 hrs by MTT assay", "format": "toxicity, cell-based", "conditions": "human"}, "[7]": {"assay": "Cytotoxicity against human ARPE-19 cells assessed as cell growth inhibition incubated for 72 hrs by MTT assay", "format": "toxicity, cell-based"}, "NCI-N87": {"system": "NCI-N87", "assay": "Antitumor activity against human NCI-N87 cells assessed as reduction in cell growth", "format": "functional, cell-based"}, "[8]": {"assay": "Oral bioavailability in mouse", "format": "ADME, organism-based", "conditions": "in vivo"}, "[9]": {"biological_target": "Cyclin-dependent kinase 2 (Homo sapiens, UniProt P24941)", "assay": "Inhibition of CDK2 (unknown origin)"}}, "note": "pEC50, pIC50, pKd: −log10 of the molar value."}
{"compound": "Nc1nccc(-c2c3cccnc3n3c(N)nccc23)n1", "values": [{"measurement": "pIC50", "setting": "[1]", "value": 7.59}]}
{"compound": "Nc1nccc(-c2c[nH]c3ncccc23)n1", "note": "[MERIOLIN 1]", "values": [{"measurement": "pIC50", "setting": "[2]", "value": 5.00}]}
{"compound": "C/C=C/C(=O)C[C@H]1CC[C@H](C)[C@H](CC(=O)NC[C@H](O)[C@H](C)C(=O)NCCC[C@H]2O[C@@]3(CCC[C@@H](CC[C@@H](C)/C=C(\\C)[C@@H](C)O)O3)CC[C@@H]2C)O1", "values": [{"measurement": "GI50", "setting": "A549", "value": 20.4, "unit": "nM"}, {"measurement": "pKd", "setting": "[3]", "value": 8.15}]}
{"compound": "CC[C@]1(NC(=O)N(C)C)[C@@H](N)[C@H](Nc2cccc(C(C)=O)c2)[C@](O)(CO)[C@]1(C)O", "values": [{"measurement": "pIC50", "setting": "MRC5 [4]", "value": 8.25}]}
{"compound": "CC[C@]1(NC(N)=O)[C@@H](N)[C@H](Nc2cccc(C(C)=O)c2)[C@](O)(COC(=O)c2c(C)cccc2O)[C@]1(C)O", "values": [{"measurement": "pIC50", "setting": "HepG2", "value": "< 5.02"}]}
{"compound": "CC(=O)c1cccc(N[C@H]2[C@H](N)[C@@](NC(=O)N(C)C)([C@H](C)O)[C@@](C)(O)[C@@]2(O)COC(=O)c2c(C)cccc2O)c1", "note": "[PACTAMYCIN]", "values": [{"measurement": "pIC50", "setting": "HepG2", "value": 7.07}, {"measurement": "pIC50", "setting": "MRC5 [5]", "value": 7.02}, {"measurement": "pIC50", "setting": "Plasmodium falciparum", "value": 6.73}]}
{"compound": "C=CCC[C@@H]1CCC[C@]2(CC[C@H](C)[C@@H](CCCNC(=O)[C@@H](C)[C@@H](O)CNC(=O)C[C@@H]3OC(CC(=O)/C=C/C)CC[C@@H]3C)O2)O1", "note": "(stereo partly drawn)", "values": [{"measurement": "GI50", "setting": "A549", "value": 323, "unit": "nM"}, {"measurement": "pKd", "setting": "[3]", "value": 5.82}]}
{"compound": "CC[C@H]1C[C@H](C)[C@@]2(NC1=O)O[C@@H](C[C@H](O)[C@@H](C)CC/C=C/C=C(\\C)[C@@H]1C/C=C/C=C/[C@H](O)[C@H](C)[C@@H](O)[C@@H](CCC(C)=O)C(=O)N[C@@H](C(C)C)C(=O)N[C@@H](Cc3cccc(O)c3)C(=O)N3CCC[C@H](N3)C(=O)O1)[C@H](C)[C@H](O)[C@@H]2C", "note": "[SANGLIFEHRIN A]", "values": [{"measurement": "pEC50", "setting": "Hepatitis C virus", "value": 7.06}]}
{"compound": "C=C[C@H](C)CCC[C@@H]1CCC[C@]2(CC[C@H](C)[C@@H](CCCNC(=O)[C@@H](C)[C@@H](O)CNC(=O)C[C@@H]3OC(CC(=O)/C=C/C)CC[C@@H]3C)O2)O1", "note": "(stereo partly drawn)", "values": [{"measurement": "GI50", "setting": "A549", "value": 87.1, "unit": "nM"}, {"measurement": "pKd", "setting": "[3]", "value": 7.15}]}
{"compound": "C=CCC1CC[C@H](C)[C@H](CC(=O)NC[C@H](O)[C@H](C)C(=O)NCCC[C@H]2O[C@@]3(CCC[C@@H](CC[C@H](C)C=C)O3)CC[C@@H]2C)O1", "note": "(stereo partly drawn)", "values": [{"measurement": "GI50", "setting": "A549", "value": 11200, "unit": "nM"}, {"measurement": "pKd", "setting": "[3]", "value": 7.41}]}
{"compound": "CO[C@H]1/C=C\\C=C(/C)C(=O)NC2=C(C)C(=O)C(NCCN(C)C)=C(C[C@@H](C)C[C@H](OC)[C@H](O)[C@@H](C)/C=C(\\C)[C@@H]1OC(N)=O)C2=O", "note": "(stereo in doubt)", "values": [{"measurement": "IC50 at 72 h", "setting": "[6]", "value": "> 20", "unit": "µM"}, {"measurement": "IC50 at 72 h", "setting": "[7]", "value": "> 20", "unit": "µM"}]}
{"compound": "CO[C@H]1/C=C\\C=C(/C)C(=O)NC2=CC(=O)C(NCCN(C)C)=C(C[C@@H](C)C[C@H](OC)[C@H](O)[C@@H](C)/C=C(\\C)[C@@H]1OC(N)=O)C2=O", "note": "(stereo in doubt) [ALVESPIMYCIN]", "values": [{"measurement": "pEC50", "setting": "NCI-N87", "value": 7.21}]}
{"compound": "C=CCNC1=C2C[C@@H](C)C[C@H](OC)[C@H](O)[C@@H](C)/C=C(\\C)[C@H](OC(N)=O)[C@@H](OC)/C=C\\C=C(/C)C(=O)NC(=C(C)C1=O)C2=O", "note": "(stereo in doubt)", "values": [{"measurement": "IC50 at 72 h", "setting": "[6]", "value": "> 20", "unit": "µM"}, {"measurement": "IC50 at 72 h", "setting": "[7]", "value": "> 20", "unit": "µM"}]}
{"compound": "C=C[C@@H](C)CC[C@@H]1CCC[C@]2(CC[C@H](C)[C@@H](CCCNC(=O)[C@@H](C)[C@@H](O)CNC(=O)CCOC)O2)O1", "values": [{"measurement": "GI50", "setting": "A549", "value": 15100, "unit": "nM"}, {"measurement": "pKd", "setting": "[3]", "value": 7.37}]}
{"compound": "CC(=O)N(C)[C@H](C(=O)N1C[C@H](C)C[C@H]1C(=O)N(C)[C@@H]1C(=O)N[C@@H](CC(C)C)C(=O)N2C[C@H](C)C[C@H]2C(=O)N[C@@H](CC(C)C)C(=O)N(C)[C@@H](C(C)C)C(=O)N2CC(C3CCCCC3)C[C@H]2C(=O)N(C)[C@H](CC(C)C)C(=O)NCC(=O)O[C@@H]1C)C(C)C", "note": "(stereo partly drawn)", "values": [{"measurement": "bioavailability", "setting": "[8]", "value": 89, "unit": "%"}]}
{"compound": "Nc1nccc(-c2c[nH]c3nccc(O)c23)n1", "note": "[MERIOLIN 2]", "values": [{"measurement": "pIC50", "setting": "[2]", "value": 5.59}, {"measurement": "pIC50", "setting": "[9]", "value": 5.51}]}
{"compound": "CC(=O)N(C)[C@H](C(=O)N1C[C@H](C)C[C@H]1C(=O)N(C)[C@@H]1C(=O)N[C@@H](CC(C)C)C(=O)N2C[C@H](C)C[C@H]2C(=O)N[C@@H](CC(C)C)C(=O)N(C)[C@@H](C(C)C)C(=O)N2CC(C)C[C@H]2C(=O)N(C)[C@H](CC(C)C)C(=O)NCC(=O)O[C@@H]1C)C(C)C", "note": "(stereo partly drawn)", "values": [{"measurement": "bioavailability", "setting": "[8]", "value": 47, "unit": "%"}]}
{"compound": "CC(=O)c1cccc(N[C@H]2[C@H](N)[C@](C)(NC(=O)N(C)C)[C@@](C)(O)[C@@]2(O)CO)c1", "values": [{"measurement": "pIC50", "setting": "Plasmodium falciparum", "value": 7.21}]}
{"compound": "C=CCNC1=C2C[C@@H](C)C[C@H](OC)[C@H](O)[C@@H](C)/C=C(\\C)[C@H](OC(N)=O)[C@@H](OC)/C=C\\C=C(/C)C(=O)NC(=C(c3ccccc3)C1=O)C2=O", "note": "(stereo in doubt)", "values": [{"measurement": "IC50 at 72 h", "setting": "[6]", "value": "> 20", "unit": "µM"}, {"measurement": "IC50 at 72 h", "setting": "[7]", "value": "> 20", "unit": "µM"}]}
{"compound": "CC[C@]1(NC(N)=O)[C@@H](N)[C@H](Nc2cccc(C(C)=O)c2)[C@](O)(CO)[C@]1(C)O", "values": [{"measurement": "pIC50", "setting": "HepG2", "value": "< 5.25"}]}
{"compound": "CC(=O)c1cccc(N[C@H]2[C@H](N)[C@](C)(NC(=O)N(C)C)[C@@](C)(O)[C@@]2(O)COC(=O)c2c(C)cccc2O)c1", "values": [{"measurement": "pIC50", "setting": "Plasmodium falciparum", "value": 7.11}]}
{"compound": "COCCC(=O)NC[C@H](O)[C@H](C)C(=O)NCCC[C@H]1O[C@@]2(CCC[C@@H](CC[C@@H](C)/C=C(\\C)[C@@H](C)O)O2)CC[C@@H]1C", "values": [{"measurement": "pKd", "setting": "[3]", "value": 8.05}]}
